Laboratory results: article PMC6988422 (Molecular Plant Pathology, 2019)

Biological target: T1, CdgL (c-di-GMP receptor interacting with LysR; YajQ homologue, Le2538) (Lysobacter enzymogenes, UniProt A0A0S2DCE3)
T1 sequence (A0A0S2DCE3 1-160): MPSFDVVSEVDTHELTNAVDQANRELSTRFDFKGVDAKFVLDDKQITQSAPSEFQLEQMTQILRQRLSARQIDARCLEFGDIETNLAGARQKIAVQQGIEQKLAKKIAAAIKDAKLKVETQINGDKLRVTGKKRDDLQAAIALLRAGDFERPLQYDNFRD
Assay: microscale thermophoresis
Assay type: binding

Kd: 14.6 µM
SMILES: Nc1nc2c(ncn2[C@@H]2O[C@@H]3CO[P@](=O)(O)O[C@H]4[C@@H](O)[C@H](n5cnc6c(=O)[nH]c(N)nc65)O[C@@H]4CO[P@](=O)(O)O[C@H]3[C@H]2O)c(=O)[nH]1 [c-di-GMP]
